# Species: Rattus norvegicus
# Assay: Open TG-GATES - Regimen: Daily Repeat
# Format: toxicity, organism-based, Sprague-Dawley
# Parameters: regimen Daily Repeat, gender Male, age 6 weeks
# Settings: in vivo, po, route gavage; for APTT / Bas / Eos / Fbg / Hb / Ht / Lym / MCH / MCHC / MCV / Mono / Neu / PT / Plat / RBC / Ret / WBC: tissue Blood; for KIDNEY_L / KIDNEY_R / KIDNEY_TOTAL: tissue Kidney; for LIVER: tissue Liver; for A/G / ALP / ALT / AST / BUN / CRE / Ca / Cl / DBIL / GLC / IP / K / LDH / Na / PL / RALB / TBIL / TC / TG / TP / gamma-GTP: tissue Plasma
# [1] = 0 mg/kg, 72 h, dose level Control, time 3 day
# [2] = 0 mg/kg, […], dose level Control, time 7 day
# [3] = 0 mg/kg, […], dose level Control, time 14 day
# [4] = 0 mg/kg, […], dose level Control, time 28 day
# [5] = 1 mg/kg, 72 h, dose level Low, time 3 day
# [6] = 1 mg/kg, […], dose level Low, time 7 day
# [7] = 1 mg/kg, […], dose level Low, time 14 day
# [8] = 1 mg/kg, […], dose level Low, time 28 day
smiles,measurement,setting,value
COc1ccc2c(c1)c(CC(=O)O)c(C)n2C(=O)c1ccc(Cl)cc1 [INDOMETHACIN],TERMINAL_BW,[1],239.9 g
same,APTT,[1],17 s
same,Bas,[1],0%
same,Eos,[1],0.8%
same,Fbg,[1],211.8 mg/dL
same,Hb,[1],13.4 g/dL
same,Ht,[1],40.3%
same,Lym,[1],81.4%
same,MCH,[1],21.4 pg
same,MCHC,[1],33.1%
same,MCV,[1],64.6 fL
same,Mono,[1],8%
same,Neu,[1],10.2%
same,PT,[1],11.2 s
same,Plat,[1],122 x10_4/uL
same,RBC,[1],625.2 x10_4/ul
same,Ret,[1],7.6%
same,WBC,[1],117.2 x10_2/uL
same,KIDNEY_L,[1],1 g
same,KIDNEY_R,[1],1.1 g
same,KIDNEY_TOTAL,[1],2.1 g
same,LIVER,[1],11.9 g
same,A/G,[1],2.1
same,ALP,[1],1154.8 IU/L
same,ALT,[1],33.2 IU/L
same,AST,[1],60 IU/L
same,BUN,[1],15.4 mg/dL
same,CRE,[1],0.6 mg/dL
same,Ca,[1],10.5 mg/dL
same,Cl,[1],107 meq/L
same,DBIL,[1],0.032 mg/dL
same,GLC,[1],201.8 mg/dL
same,IP,[1],7.4 mg/dL
same,K,[1],4.8 meq/L
same,LDH,[1],95.2 IU/L
same,Na,[1],139.6 meq/L
same,PL,[1],144.4 mg/dL
same,RALB,[1],3.9 g/dL
same,TBIL,[1],0.4 mg/dL
same,TC,[1],74.2 mg/dL
same,TG,[1],86.8 mg/dL
same,TP,[1],5.7 g/dL
same,gamma-GTP,[1],1 IU/L
same,TERMINAL_BW,[2],269.3 g
same,TERMINAL_BW,[3],339.4 g
same,TERMINAL_BW,[4],433.9 g
same,APTT,[2],16.5 s
same,Bas,[2],0%
same,Eos,[2],1%
same,Fbg,[2],223.6 mg/dL
same,Hb,[2],14.1 g/dL
same,Ht,[2],42.4%
same,Lym,[2],82%
same,MCH,[2],20.9 pg
same,MCHC,[2],33.3%
same,MCV,[2],62.8 fL
same,Mono,[2],6.8%
same,Neu,[2],10%
same,PT,[2],11.8 s
same,Plat,[2],106.3 x10_4/uL
same,RBC,[2],675 x10_4/ul
same,Ret,[2],5.7%
same,WBC,[2],126.2 x10_2/uL
same,APTT,[3],16.7 s
same,Bas,[3],0%
same,Eos,[3],0.6%
same,Fbg,[3],228.8 mg/dL
same,Hb,[3],13.9 g/dL
same,Ht,[3],41.7%
same,Lym,[3],84.2%
same,MCH,[3],20.1 pg
same,MCHC,[3],33.4%
same,MCV,[3],60.3 fL
same,Mono,[3],5%
same,Neu,[3],10.4%
same,PT,[3],11.8 s
same,Plat,[3],110.6 x10_4/uL
same,RBC,[3],691.2 x10_4/ul
same,Ret,[3],5.1%
same,WBC,[3],148.4 x10_2/uL
same,APTT,[4],15.3 s
same,Bas,[4],0%
same,Eos,[4],0.8%
same,Fbg,[4],256.8 mg/dL
same,Hb,[4],14.6 g/dL
same,Ht,[4],44.4%
same,Lym,[4],86.8%
same,MCH,[4],18.5 pg
same,MCHC,[4],32.9%
same,MCV,[4],56.1 fL
same,Mono,[4],4.4%
same,Neu,[4],7.8%
same,PT,[4],11.8 s
same,Plat,[4],112.3 x10_4/uL
same,RBC,[4],792.2 x10_4/ul
same,Ret,[4],3.2%
same,WBC,[4],153.4 x10_2/uL
same,KIDNEY_L,[2],1.2 g
same,KIDNEY_R,[2],1.2 g
same,KIDNEY_TOTAL,[2],2.4 g
same,KIDNEY_L,[3],1.3 g
same,KIDNEY_R,[3],1.3 g
same,KIDNEY_TOTAL,[3],2.6 g
same,KIDNEY_L,[4],1.5 g
same,KIDNEY_R,[4],1.5 g
same,KIDNEY_TOTAL,[4],3 g
same,LIVER,[2],13.2 g
same,LIVER,[3],16 g
same,LIVER,[4],19.6 g
same,A/G,[2],2
same,ALP,[2],925.4 IU/L
same,ALT,[2],33 IU/L
same,AST,[2],63.2 IU/L
same,BUN,[2],18.4 mg/dL
same,CRE,[2],0.5 mg/dL
same,Ca,[2],10.7 mg/dL
same,Cl,[2],106.8 meq/L
same,DBIL,[2],0.012 mg/dL
same,GLC,[2],202.2 mg/dL
same,IP,[2],8.3 mg/dL
same,K,[2],5 meq/L
same,LDH,[2],97.4 IU/L
same,Na,[2],139 meq/L
same,PL,[2],144.8 mg/dL
same,RALB,[2],4 g/dL
same,TBIL,[2],0.3 mg/dL
same,TC,[2],69.2 mg/dL
same,TG,[2],126.8 mg/dL
same,TP,[2],6.1 g/dL
same,gamma-GTP,[2],0.6 IU/L
same,A/G,[3],1.8
same,ALP,[3],780.8 IU/L
same,ALT,[3],30.6 IU/L
same,AST,[3],60.6 IU/L
same,BUN,[3],19.8 mg/dL
same,CRE,[3],0.6 mg/dL
same,Ca,[3],10.4 mg/dL
same,Cl,[3],105.6 meq/L
same,DBIL,[3],0.012 mg/dL
same,GLC,[3],201.2 mg/dL
same,IP,[3],8.5 mg/dL
same,K,[3],4.8 meq/L
same,LDH,[3],82.6 IU/L
same,Na,[3],138.2 meq/L
same,PL,[3],147.6 mg/dL
same,RALB,[3],3.9 g/dL
same,TBIL,[3],0.3 mg/dL
same,TC,[3],72.4 mg/dL
same,TG,[3],130.4 mg/dL
same,TP,[3],6.2 g/dL
same,gamma-GTP,[3],1.6 IU/L
same,A/G,[4],1.9
same,ALP,[4],622.6 IU/L
same,ALT,[4],27.6 IU/L
same,AST,[4],56.2 IU/L
same,BUN,[4],18.8 mg/dL
same,CRE,[4],0.7 mg/dL
same,Ca,[4],10.7 mg/dL
same,Cl,[4],105.2 meq/L
same,DBIL,[4],0.018 mg/dL
same,GLC,[4],206.4 mg/dL
same,IP,[4],7.5 mg/dL
same,K,[4],4.1 meq/L
same,LDH,[4],62.4 IU/L
same,Na,[4],139.2 meq/L
same,PL,[4],163.2 mg/dL
same,RALB,[4],4.3 g/dL
same,TBIL,[4],0.3 mg/dL
same,TC,[4],79.6 mg/dL
same,TG,[4],181.2 mg/dL
same,TP,[4],6.6 g/dL
same,gamma-GTP,[4],1.8 IU/L
same,TERMINAL_BW,[5],239.1 g
same,APTT,[5],16.8 s
same,Bas,[5],0%
same,Eos,[5],0.4%
same,Fbg,[5],230.8 mg/dL
same,Hb,[5],13.6 g/dL
same,Ht,[5],40.7%
same,Lym,[5],79%
same,MCH,[5],21.7 pg
same,MCHC,[5],33.5%
same,MCV,[5],65 fL
same,Mono,[5],7.6%
same,Neu,[5],12.8%
same,PT,[5],10.9 s
same,Plat,[5],102.8 x10_4/uL
same,RBC,[5],626.4 x10_4/ul
same,Ret,[5],7%
same,WBC,[5],89 x10_2/uL
same,KIDNEY_L,[5],1.1 g
same,KIDNEY_R,[5],1.1 g
same,KIDNEY_TOTAL,[5],2.2 g
same,LIVER,[5],11.8 g
same,A/G,[5],1.9
same,ALP,[5],1210.2 IU/L
same,ALT,[5],35.2 IU/L
same,AST,[5],64.4 IU/L
same,BUN,[5],16.8 mg/dL
same,CRE,[5],0.6 mg/dL
same,Ca,[5],10.6 mg/dL
same,Cl,[5],105.8 meq/L
same,DBIL,[5],0.032 mg/dL
same,GLC,[5],196.6 mg/dL
same,IP,[5],7.9 mg/dL
same,K,[5],4.9 meq/L
same,LDH,[5],91.4 IU/L
same,Na,[5],138.8 meq/L
same,PL,[5],165.2 mg/dL
same,RALB,[5],3.9 g/dL
same,TBIL,[5],0.3 mg/dL
same,TC,[5],86 mg/dL
same,TG,[5],108 mg/dL
same,TP,[5],5.9 g/dL
same,gamma-GTP,[5],1.2 IU/L
same,TERMINAL_BW,[6],272.4 g
same,TERMINAL_BW,[7],337.2 g
same,TERMINAL_BW,[8],425.7 g
same,APTT,[6],16.3 s
same,Bas,[6],0%
same,Eos,[6],0.6%
same,Fbg,[6],240.2 mg/dL
same,Hb,[6],13.8 g/dL
same,Ht,[6],41.9%
same,Lym,[6],82.8%
same,MCH,[6],21.1 pg
same,MCHC,[6],33.1%
same,MCV,[6],63.9 fL
same,Mono,[6],7.2%
same,Neu,[6],9.2%
same,PT,[6],11.7 s
same,Plat,[6],121.9 x10_4/uL
same,RBC,[6],656.8 x10_4/ul
same,Ret,[6],7.2%
same,WBC,[6],124.3 x10_2/uL
same,APTT,[7],16.5 s
same,Bas,[7],0%
same,Eos,[7],0.8%
same,Fbg,[7],232.4 mg/dL
same,Hb,[7],14.4 g/dL
same,Ht,[7],43.4%
same,Lym,[7],85.4%
same,MCH,[7],19.8 pg
same,MCHC,[7],33.1%
same,MCV,[7],59.8 fL
same,Mono,[7],4.8%
same,Neu,[7],9%
same,PT,[7],11.6 s
same,Plat,[7],119.2 x10_4/uL
same,RBC,[7],726.6 x10_4/ul
same,Ret,[7],4.3%
same,WBC,[7],140.8 x10_2/uL
same,APTT,[8],16.4 s
same,Bas,[8],0%
same,Eos,[8],0.8%
same,Fbg,[8],249.8 mg/dL
same,Hb,[8],15.2 g/dL
same,Ht,[8],45.7%
same,Lym,[8],83.6%
same,MCH,[8],19.1 pg
same,MCHC,[8],33.2%
same,MCV,[8],57.5 fL
same,Mono,[8],5.6%
same,Neu,[8],10.6%
same,PT,[8],11.8 s
same,Plat,[8],113.7 x10_4/uL
same,RBC,[8],795.8 x10_4/ul
same,Ret,[8],2.7%
same,WBC,[8],149.8 x10_2/uL
same,KIDNEY_L,[6],1.1 g
same,KIDNEY_R,[6],1.1 g
same,KIDNEY_TOTAL,[6],2.3 g
same,KIDNEY_L,[7],1.3 g
same,KIDNEY_R,[7],1.3 g
same,KIDNEY_TOTAL,[7],2.6 g
same,KIDNEY_L,[8],1.4 g
same,KIDNEY_R,[8],1.4 g
same,KIDNEY_TOTAL,[8],2.8 g
same,LIVER,[6],13.5 g
same,LIVER,[7],16.3 g
same,LIVER,[8],18.6 g
same,A/G,[6],2.1
same,ALP,[6],892.6 IU/L
same,ALT,[6],30.2 IU/L
same,AST,[6],61.4 IU/L
same,BUN,[6],20 mg/dL
same,CRE,[6],0.5 mg/dL
same,Ca,[6],11 mg/dL
same,Cl,[6],105.6 meq/L
same,DBIL,[6],0.006 mg/dL
same,GLC,[6],193.2 mg/dL
same,IP,[6],8.2 mg/dL
same,K,[6],4.9 meq/L
same,LDH,[6],89.2 IU/L
same,Na,[6],139.4 meq/L
same,PL,[6],156.6 mg/dL
same,RALB,[6],4 g/dL
same,TBIL,[6],0.4 mg/dL
same,TC,[6],77.4 mg/dL
same,TG,[6],149.6 mg/dL
same,TP,[6],6 g/dL
same,gamma-GTP,[6],1.4 IU/L
